In patent US11154569B2, “Ruthenium μ-nitrido complexes and their use as calcium uptake inhibitors” (CORNELL UNIVERSITY, priority 2018, dated 2021):
Substitutions are numbered along the chain they refer to.

Tests used:
[1] = biological target: T1, MCU C97A mutant (Homo sapiens, UniProt Q8NE86, C97A); assay: mCa2+ uptake in permeabilized HEK293T cells expressing MCU C97A mutant; type: cell-based; settings: C-2 10 nM, Ru360 500 nM
T1 construct: stably expressing Flag-tagged full-length wild-type MCU (MCU^WT) and the mutant C97A (MCU^C97A); Flag; expressed in transfected cells
T1 sequence (Q8NE86 51-351 C97A): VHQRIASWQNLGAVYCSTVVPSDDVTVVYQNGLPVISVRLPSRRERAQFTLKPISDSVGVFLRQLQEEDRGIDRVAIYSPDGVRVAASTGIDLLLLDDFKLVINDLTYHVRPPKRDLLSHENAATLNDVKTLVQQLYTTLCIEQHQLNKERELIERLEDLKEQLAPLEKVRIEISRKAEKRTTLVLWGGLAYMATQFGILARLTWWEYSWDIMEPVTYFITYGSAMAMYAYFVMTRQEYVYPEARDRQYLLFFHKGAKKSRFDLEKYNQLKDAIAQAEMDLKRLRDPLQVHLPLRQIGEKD
T1 sequence (Q9H4I9 48-107 partner limits assumed): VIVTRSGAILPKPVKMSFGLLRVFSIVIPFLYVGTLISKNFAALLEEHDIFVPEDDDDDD
Protocol: (§1) An equal number of IHEK293T (6×10^6 cells) were washed in Ca^2+ free PBS, pH 7.4, resuspended and permeabilized with 40 μg/ml digitonin in 1.5 ml of intracellular medium (ICM) composed of 120 mM KCl, 10 mM NaCl, 1 mM K—H2PO4, 20 mM HE PES-Tris, pH 7.2 and 2 μM thapsigargin to block the SERCA pump. All measurements were performed in the presence of 2 mM succinate. The permeabilized cells were loaded with JC-1 (800 nM) and Fura2-FF (0.5 μM), respectively. Fluorescence was monitored in a multi-wavelength excitation dual-wavelength emission fluorimeter. [Ca^2+]out is represented as the excitation ratio (340 nm/380 nm) of Fura2-FF/FA fluorescence and ΔΨm as the ratio of the fluorescence of J-aggregate (570 nm excitation/595 nm emission) and monomer (490 nm excitation/535 nm emission) forms of JC-1. A series of extra-mitochondrial Ca^2+ bolus (20 μM) was added and mitochondrial uncoupler, CCCP (2 jμM), were added at the indicated time points. All of the experiments were performed at 37° C. with constant stirring.
To determine if C-2 interacts with the NTD, HEK293T cells stably expressing Flag-tagged full-length wild-type MCU (MCU^WT) and the mutant C97A (MCU^C97A) were permeabilized, and mCa^2+ uptake was measured as above.

[2] = biological target: T2, mitochondrial calcium uniporter (MCU) (Homo sapiens, UniProt Q8NE86); assay: MCU-mediated Ca2+ uptake and ΔΨm in permeabilized HEK293T cells; type: cell-based; set-up: endogenous in cells; host or cells: HEK293T (digitonin-permeabilized); settings: for MCU mediated mCa2+ uptake / transient ΔΨm loss (JC-1): 5 μM compound, 20 μM Ca2+ bolus; for MCU mediated mCa2+ uptake: digitonin permeabilized HEK293T cells; for transient ΔΨm loss (JC-1): permeabilized HEK293T cells
T2 sequence (Q8NE86 51-351): T1 sequence (Q8NE86 51-351 C97A) with A47C
T2 sequence (Q9H4I9 48-107 partner limits assumed): T1 sequence (Q9H4I9 48-107 partner limits assumed)
Protocol: as §1
With the new nitrido-bridged ruthenium compounds C-2 and C-3 prepared, MCU-inhibitory properties of these compounds were evaluated and their activities compared to C-1, the oxo-bridged Ru360 analogue of the conventional art (S. R. Nathan et al., Inorg. Chem. 2017, 56, 3123-3126 and S. R. Nathan et al., J. Vis. Exp. 2017, 56527). The cytotoxicity of the complexes in HEK293 cells was first measured using the colorimetric thiazolyl blue tetrazolium bromide (MTT) assay, as well known in the art. […] To measure the effect of these compounds on MCU activity, permeabilized HEK293T cells were treated with commercially available Ru360, C-1, C-2, or C-3 (5 jμM) 200 seconds prior to the delivery of a 20 μM bolus of Ca^2+ in the presence of 2 mM succinate as an energy source and the sarco/endoplasmic reticulum Ca^2+-ATPase (SERCA) pump blocker thapsigargin to prevent ER Ca^2+ uptake (S. Shanmughapriya et al., Sci. Signal. 2015, 8, ra23).
FIGS. 2A-2C are graphs showing changes in mitochondrial membrane potential (ΔΨm, JC-1, top panel) and extramitochondrial Ca^2+([Ca^2+]out) clearance (Fura-2 FF, bottom panel) in digitonin permeabilized HEK293T cells in response to 20 μM of Ca^2+ after treatment with 5 μM of C-1 (FIG. 2A), C-2 (FIG. 2B), and C-3 (FIG. 2C). The transient drop in ΔΨm in control cells upon Ca^2+ addition indicates accumulation of Ca^2+ in the mitochondrial matrix. FIG. 2D is a graph quantifying the rate of [Ca^2+] uptake as a function of decrease in [Ca^2+]out after a […] Ca^2+ pulse. […] Additionally, ΔΨm was monitored using 5,5′,6,6′-tetrachloro-1,1′,3,3′-tetraethylbenzimidazolylcarbocyanine iodide (JC-1) dye (M. Reen et al., Biochemistry 1991, 30, 4480-4486).
Having identified (C-2 as a cell-permeable MCU inhibitor, a dose-response analysis was performed to determine the potency of C-2 towards mCa^2+ uptake inhibition of C-2 in a permeabilized cell system. Permeabilized IHEK293T cells were treated with C-2 (1 nM to 1 μM). A 20 μM Ca^2+ bolus was added after baseline recording, and the extra-mitochondrial calcium cleared was used as an indicator for MCU-mediated mCa^2+ uptake using Fura-2FF. The results are shown in FIGS. 4A-4C. FIG. 4A includes representative traces of [Ca^2+]out clearance in permeabilized HEK293T cells challenged with a range of C-2 concentrations (1, 2, 3, 5, and 10 nM). FIG. 4B is a graph comparing MCU-inhibitory effect by Ru360 (30 nM) and C-2 (2 and 10 nM) at lower concentrations. FIG. 4C is a graph showing calculation of dose-dependent IC50 inhibition by C-2 and Ru360. Data represent mean±SEM (n=3-6), n.s.=not significant. […] Furthermore, complete inhibition of mCa^2+ uptake was observed when cells were dosed with 10 nM C-2 while 500 nM of Ru360 was required for the same response (FIGS. 4A and 4B).

| Compound | effect of MCU C97A mutation on MCU inhibition compared to MCU WT cells [1] | IC50 [2] [µM] | MCU mediated mCa2+ uptake [2] | transient ΔΨm loss (JC-1) [2] |
| --- | --- | --- | --- | --- |
| N.N.N.N.N.N.N.N.[Cl-].[Cl-].[N-3].[Ru+4].[Ru+4] [C-2, [Ru2(μ-N)(NH3)8Cl2]Cl3] | significantly reduced MCU inhibitory activity | 0.0026 | significant reduction in MCU mediated mCa^2+ uptake | no transient A m loss |
| N.N.N.N.N.N.N.N.O=C[O-].O=C[O-].[O-2].[Ru+3].[Ru+4] [Ru360, reference compound] | almost no effect on the activity | 0.03 | significant reduction in MCU mediated mCa^2+ uptake | no transient A m loss |
| [Ru2(μ-N)(en)4Cl2]Cl3 [C-3] | – | – | significant reduction in MCU mediated mCa^2+ uptake | no transient A m loss |
